Experimental data taken from US20040167330A1, “Novel chelating agents and conjugates thereof, their synthesis and use as diagnois and therapeutic agents” (priority 2004, published 2004).
Entries after “also recorded” stand apart in the source; their conditions may differ. Each block holds one compound with its values, some of them ahead of it.

Legend:
[1] = Formation of ^90Y-yttrium complex, radiochemical yield by TLC/HPLC; assay type: physicochemical
Procedure: Purified DO3A-P^BnNH2 was dissolved in demineralised water at a concentration of 9×10^−5 mol/l. 0.1 ml of this solution were transferred into a small reaction vial (PE). 0.1 ml ^90Y-yttrium chloride (YCl3) in 0.1 M HCl and 0.1 ml ammonium acetate buffer, pH 5.7, were added. The reaction solutions were mixed well. pH values were measured continuously while preparing the solution. 24 identical solutions were prepared accordingly and stored at 25° C. and 37° C. respectively.
Samples were taken after 15 min, 30 min, 45 min, 60 min, 90 min and 120 min and analyzed by thin layer chromatography using silica gel (POLYGRAM SIL G/UV254) or, preferably, paper (Whatman No. 1) as solid phase. TLC was run using either solvent I: 0.1 N ammonium acetate solution or solvent II: 3% sodium chloride solution as developing solution. In parallel, samples (20 μl) were analyzed by gel filtration using HPLC. The HPLC-system comprised a gamma detector (Berthold LB 506) and a UV/VIS spectrometer (Waters 486) installed in two flow through cells, respectively.
Temperature- and time-dependent studies have shown a very short reaction time for the complex formation of a ^90Y-Yttrium-DO3A-complex.
Furthermore, the effect of pH and ligand concentration on radiochemical yield was evaluated. Table 5 summarizes the results relating to the variation of pH between pH 2.0 and pH 8.9 while maintaining a constant ratio of DO3A-P^BnNH2 and Y of 3:1 and a reaction time of 60 min at 25° C. Accordingly, best labeling results are achieved at pH values of 4.9-8.0. Table 6 summarizes the results relating to the variation of the ligand concentration DO3A-P^BnNH2: Y between 1:1 up to 7:1 while maintaining a constant pH range (pH 5.2) and reaction time of 60 min at 25° C.

[2] = as above; assay type: physicochemical; settings: reaction time 0 min, [Y] = 1,2 · 10^−3 mol/l, ratio of ligand: Y = 1:1, pH = 5.5
[3] = Elimination (cumulative excretion of radioactivity) of ^88Y-DO3A-P^BnNH2 complex; assay type: in vivo; settings: Wistar SPF rats
Procedure: 2. Determination of elimination (mode and rate) of ^88Y-DO3A-P^BnNH2 complex from the organism
2. Mode and rate of elimination of ^88Y-DO3A-P^BnNH2 complex from the organism as determined by cumulative excretion of radioactivity in intervals of 0-2 h and 0-24 h respectively after intravenous injection of ^88Y-DO3A-P^BnNH2 complex into the vena saphena of Wistar SPF rats are summarized in Table 4.

human plasma proteins = assay: In vitro binding to human plasma proteins (equilibration dialysis or ultrafiltration); assay type: in vitro ADME; settings: 37° C.
Procedure: 3. Determination of the in vitro binding capacity of ^88Y-DO3A-P^BnNH2 complex to human plasma proteins
3. Binding of the 88Y-DO3A-P^BnNH2 complex to human plasma proteins was evaluated at 37° C. using equilibration dialysis or ultrafiltration. 10.2±2.3% or 3.7±3.2% were bound to plasma proteins, respectively. Pharmacokinetically, reversible binding is of no importance.

[4] = Stability of complex in human plasma; assay type: in vitro ADME; settings: for High molecular weight form / Low molecular weight form: human plasma, 37° C.
Procedure: 4. Determination of the stability of 88Y-DO3A-P^BnNH2 complex in human plasma
4. Stability of the ^88Y-DO3A-P^BnNH2 complex was determined in human plasma at 37° C. over 14 days using standardised in vitro conditions. […] Dissociation of the radionuclide ^88Y-yttrium from the ^88Y-DO3A-P^BnNH2 complex and binding to plasma proteins (predominantly to complex forming transferrin, a protein which prefers to form complexes with trivalent elements such as Fe^3+, Co^3+ but also Y^3+) was shown only for <2% of the total activity administered to human plasma.

[5] = Relaxation measurements of gadolinium(III) complex solutions; assay type: physicochemical; settings: gadolinium(III) complex in solution; at 10 MHz
Procedure: Solution was stirred for 1 h at room temperature and pH was set to approx. pH 7 by careful addition of solid KOH. Thus prepared solution as well as other solutions of different concentration which were prepared by a similar approach (all containing known amount of water and gadolinium(III)) were used for relaxation measurements. The solutions gave relaxivity 7.86 mmol^−1 s^−1 (at 10 MHz).
Solution of gadolinium(III) complex of compound 1 for relaxation measurements were prepared similarly to Example 51. The solutions gave relaxivity 7.54 mmol-1 s^−1 (at 10 MHz). Exchange half-life of coordinated water molecule 70 ns was determined (from temperature dependence of ^17O NMR parameters).

radiochemical yield ([1]; pH 2.0, [Y] = 1.5 · 10^−5 mol/l, ratio of ligand: Y = 3:1, reaction time 60 min, 25° C.): 12%
radiochemical yield ([1]; pH 3.0, [Y] = 1.5 · 10^−5 mol/l, ratio of ligand: Y = 3:1, reaction time 60 min, 25° C.): 54%
radiochemical yield ([1]; pH 3.9, [Y] = 1.5 · 10^−5 mol/l, ratio of ligand: Y = 3:1, reaction time 60 min, 25° C.): 77%
radiochemical yield ([1]; pH 4.4, [Y] = 1.5 · 10^−5 mol/l, ratio of ligand: Y = 3:1, reaction time 60 min, 25° C.): 93%
radiochemical yield ([1]; pH 4.9, [Y] = 1.5 · 10^−5 mol/l, ratio of ligand: Y = 3:1, reaction time 60 min, 25° C.): 97%
radiochemical yield ([1]; pH 5.6, [Y] = 1.5 · 10^−5 mol/l, ratio of ligand: Y = 3:1, reaction time 60 min, 25° C.): 95%
radiochemical yield ([1]; pH 6.0, [Y] = 1.5 · 10^−5 mol/l, ratio of ligand: Y = 3:1, reaction time 60 min, 25° C.): 93%
radiochemical yield ([1]; pH 6.2, [Y] = 1.5 · 10^−5 mol/l, ratio of ligand: Y = 3:1, reaction time 60 min, 25° C.): 97%
radiochemical yield ([1]; pH 6.6, [Y] = 1.5 · 10^−5 mol/l, ratio of ligand: Y = 3:1, reaction time 60 min, 25° C.): 98%
radiochemical yield ([1]; pH 6.8, [Y] = 1.5 · 10^−5 mol/l, ratio of ligand: Y = 3:1, reaction time 60 min, 25° C.): 98%
radiochemical yield ([1]; pH 8.0, [Y] = 1.5 · 10^−5 mol/l, ratio of ligand: Y = 3:1, reaction time 60 min, 25° C.): 98%
radiochemical yield ([1]; pH 8.9, [Y] = 1.5 · 10^−5 mol/l, ratio of ligand: Y = 3:1, reaction time 60 min, 25° C.): 91%
radiochemical yield ([1]; ratio of ligand:Y 1:1, [Y] = 1.2 · 10^−3 mol/l, pH = 5.2, reaction time 60 min, 25° C.): 94%
radiochemical yield ([1]; ratio of ligand:Y 2:1, [Y] = 1.2 · 10^−3 mol/l, pH = 5.2, reaction time 60 min, 25° C.): 97%
radiochemical yield ([1]; ratio of ligand:Y 3:1, [Y] = 1.2 · 10^−3 mol/l, pH = 5.2, reaction time 60 min, 25° C.): 98%
radiochemical yield ([1]; ratio of ligand:Y 4:1, [Y] = 1.2 · 10^−3 mol/l, pH = 5.2, reaction time 60 min, 25° C.): 99%
radiochemical yield ([1]; ratio of ligand:Y 5:1, [Y] = 1.2 · 10^−3 mol/l, pH = 5.2, reaction time 60 min, 25° C.): 97%
radiochemical yield ([1]; ratio of ligand:Y 6:1, [Y] = 1.2 · 10^−3 mol/l, pH = 5.2, reaction time 60 min, 25° C.): 99%
radiochemical yield ([1]; ratio of ligand:Y 7:1, [Y] = 1.2 · 10^−3 mol/l, pH = 5.2, reaction time 60 min, 25° C.): 97%
radiochemical yield ([1]; reaction time 15 min, 25° C., [Y] = 1,2 · 10^−3 mol/l, ratio of ligand: Y = 1:1, pH = 5.5): 97%
radiochemical yield ([1]; reaction time 15 min, 37° C., [Y] = 1,2 · 10^−3 mol/l, ratio of ligand: Y = 1:1, pH = 5.5): 98%
radiochemical yield ([1]; reaction time 30 min, 25° C., [Y] = 1,2 · 10^−3 mol/l, ratio of ligand: Y = 1:1, pH = 5.5): 97%
radiochemical yield ([1]; reaction time 30 min, 37° C., [Y] = 1,2 · 10^−3 mol/l, ratio of ligand: Y = 1:1, pH = 5.5): 98%
radiochemical yield ([1]; reaction time 45 min, 25° C., [Y] = 1,2 · 10^−3 mol/l, ratio of ligand: Y = 1:1, pH = 5.5): 97%
radiochemical yield ([1]; reaction time 45 min, 37° C., [Y] = 1,2 · 10^−3 mol/l, ratio of ligand: Y = 1:1, pH = 5.5): 98%
radiochemical yield ([1]; reaction time 60 min, 25° C., [Y] = 1,2 · 10^−3 mol/l, ratio of ligand: Y = 1:1, pH = 5.5): 97%
radiochemical yield ([1]; reaction time 60 min, 37° C., [Y] = 1,2 · 10^−3 mol/l, ratio of ligand: Y = 1:1, pH = 5.5): 97%
radiochemical yield ([1]; reaction time 90 min, 25° C., [Y] = 1,2 · 10^−3 mol/l, ratio of ligand: Y = 1:1, pH = 5.5): 98%
radiochemical yield ([1]; reaction time 90 min, 37° C., [Y] = 1,2 · 10^−3 mol/l, ratio of ligand: Y = 1:1, pH = 5.5): 98%
radiochemical yield ([1]; reaction time 120 min, 25° C., [Y] = 1,2 · 10^−3 mol/l, ratio of ligand: Y = 1:1, pH = 5.5): 98%
radiochemical yield ([1]; reaction time 120 min, 37° C., [Y] = 1,2 · 10^−3 mol/l, ratio of ligand: Y = 1:1, pH = 5.5): 99%
radiochemical yield ([2]; 25° C.): 88%
radiochemical yield ([2]; 37° C.): 88%
Compound: Nc1ccc(CP(=O)([O-])CN2CCN(CC(=O)[O-])CCN(CC(=O)[O-])CCN(CC(=O)[O-])CC2)cc1.[90Y+3] [^90Y-DO3A-P^BnNH2-complex]

Cumulative excretion of radioactivity ([3]; Faeces, interval 0-24 h after intravenous injection): 3.6 ± 2.8%
Cumulative excretion of radioactivity ([3]; Urine, interval 0-2 h after intravenous injection): 79.4 ± 5.2%
Cumulative excretion of radioactivity ([3]; Urine, interval 0-24 h after intravenous injection): 84.3 ± 5.0%
bound to plasma proteins (human plasma proteins; equilibration dialysis): 10.2±2.3%
bound to plasma proteins (human plasma proteins; ultrafiltration): 3.7±3.2%
High molecular weight form ([4]; Day 0, Experiment No. 1): 0.28%
Low molecular weight form ([4]; Day 0, Experiment No. 1): 99.72%
High molecular weight form ([4]; Day 0, Experiment No. 2): 0.10%
Low molecular weight form ([4]; Day 0, Experiment No. 2): 99.90%
High molecular weight form ([4]; Day 3, Experiment No. 1): 0.75%
Low molecular weight form ([4]; Day 3, Experiment No. 1): 99.25%
High molecular weight form ([4]; Day 3, Experiment No. 2): 0.56%
Low molecular weight form ([4]; Day 3, Experiment No. 2): 99.44%
High molecular weight form ([4]; Day 5, Experiment No. 1): 0.72%
Low molecular weight form ([4]; Day 5, Experiment No. 1): 99.28%
High molecular weight form ([4]; Day 5, Experiment No. 2): 0.91%
Low molecular weight form ([4]; Day 5, Experiment No. 2): 99.09%
High molecular weight form ([4]; Day 7, Experiment No. 1): 0.79%
Low molecular weight form ([4]; Day 7, Experiment No. 1): 99.21%
High molecular weight form ([4]; Day 7, Experiment No. 2): 0.73%
Low molecular weight form ([4]; Day 7, Experiment No. 2): 99.27%
High molecular weight form ([4]; Day 10, Experiment No. 1): 0.91%
Low molecular weight form ([4]; Day 10, Experiment No. 1): 99.09%
High molecular weight form ([4]; Day 10, Experiment No. 2): 1.08%
Low molecular weight form ([4]; Day 10, Experiment No. 2): 98.92%
High molecular weight form ([4]; Day 12, Experiment No. 1): 1.17%
Low molecular weight form ([4]; Day 12, Experiment No. 1): 98.83%
High molecular weight form ([4]; Day 12, Experiment No. 2): 1.35%
Low molecular weight form ([4]; Day 12, Experiment No. 2): 98.65%
High molecular weight form ([4]; Day 14, Experiment No. 1): 1.68%
Low molecular weight form ([4]; Day 14, Experiment No. 1): 98.32%
High molecular weight form ([4]; Day 14, Experiment No. 2): 1.80%
Low molecular weight form ([4]; Day 14, Experiment No. 2): 98.20%
Compound: Nc1ccc(CP(=O)([O-])CN2CCN(CC(=O)[O-])CCN(CC(=O)[O-])CCN(CC(=O)[O-])CC2)cc1.[88Y+3] [^88Y-DO3A-P^BnNH2 complex]
Dissociation of the radionuclide ^88Y-yttrium from the complex and binding to plasma proteins ([4]; human plasma at 37° C. over 14 days): < 2 % of the total activity administered to human plasma
Stability of the complex in human plasma ([4]; human plasma at 37° C. over 14 days, standardised in vitro conditions): highly stable; also recorded: high stability

relaxivity [5]: 7.54 mmol⁻¹ s⁻¹
Compound: Gadolinium(III) Complex of DO3A-P [gadolinium(III) complex of compound 1]
